Molecules are shown by their SMILES.

The test system of this assay is Dirofilaria immitis L1 larvae. Briefly: Screening against microfilaria (L1 larvae) of Dirofilaria immitis, survival/motility. As to conditions: 72 h, read-out: Ranked D. immitis L1 MED Activity. In kind it is in vivo. On the procedure:
Example 44. Screening of Compounds Against Microfilaria of Dirofilaria immitis
To evaluate the efficacy of compounds of the disclosure against Dirofilaria immitis, L1 stage larvae were exposed to various concentrations of the compounds to determine survival or paralysis of the larvae. Results are reported as the minimum effective dose (MED), defined as the concentration required to eliminate motility.
To perform the assay, microfilaria of Dirofilaria immitis were added to the wells of a microtiter plate containing buffer and the test compounds in DMSO. Microfilaria exposed to DMSO alone served as controls. An assessment was conducted at 72 hours to determine survival of the microfilaria.
Consider `CN(CC1CN(S(C)(=O)=O)CCO1)c1cc(N2CCOC3(CCC(F)(F)CC3)C2)nc(C(F)(F)F)n1` (centres unmarked) [Compound 21, 6-(9,9-difluoro-1-oxa-4-azaspiro[5.5]undecan-4-yl)-N-methyl-N-((4-(methylsulfonyl)morpholin-2-yl)methyl)-2-(trifluoromethyl)pyrimidin-4-amine], for which the minimal effective concentration was less than 10000 µM.
On to `CN(C)S(=O)(=O)N1CC2(CN(c3cc(N4CCCC5(CCCCC5)C4)nc(C(F)(F)F)n3)C2)C1` [Compound 10, 6-(6-(2-azaspiro[5.5]undecan-2-yl)-2-(trifluoromethyl)pyrimidin-4-yl)-N,N-dimethyl-2,6-diazaspiro[3.3]heptane-2-sulfonamide], for which the minimal effective concentration is more than 100000 µM.
On to `CN(CC1CN(S(C)(=O)=O)CCC1(F)F)c1cc(N2CCOC3(CCCCC3)C2)nc(C(F)(F)F)n1` (centres unmarked) [Compound 24, N-((4,4-difluoro-1-(methylsulfonyl)piperidin-3-yl)methyl)-N-methyl-6-(1-oxa-4-azaspiro[5.5]undecan-4-yl)-2-(trifluoromethyl)pyrimidin-4-amine], for which the minimal effective concentration is less than 10000 µM.
As for `CN(CC1CN(S(C)(=O)=O)CCO1)c1cc(N2CCOC3(CCCCC3)C2)nc(C(F)(F)F)n1` (racemic) [Compound 4, (R) and (S)-N-methyl-N-((4-(methylsulfonyl)morpholin-2-yl)methyl)-6-(1-oxa-4-azaspiro[5.5]undecan-4-yl)-2-(trifluoromethyl)pyrimidin-4-amine], the minimal effective concentration was less than 30000 µM.
In the case of `CN(CCOc1ccccc1)c1cc(N2CCCC3(CCCCC3)C2)nc(C(F)(F)F)n1` [Compound 8, N-methyl-N-(2-phenoxyethyl)-6-(2-azaspiro[5.5]undecan-2-yl)-2-(trifluoromethyl)pyrimidin-4-amine], the minimal effective concentration is more than 100000 µM.
With `CN(CC1CN(S(C)(=O)=O)CCO1)c1cc(N2CCOC3(CCCC3)C2)nc(C(F)(F)F)n1` (centres unmarked) [Compound 16, N-methyl-N-((4-(methylsulfonyl)morpholin-2-yl)methyl)-6-(6-oxa-9-azaspiro[4.5]decan-9-yl)-2-(trifluoromethyl)pyrimidin-4-amine] the figure was less than 30000 µM; with `CN(CC1CN(S(C)(=O)=O)CCC1(F)F)c1cc(N2CCCC3(CCCCC3)C2)nc(C(F)(F)F)n1` (centres unmarked) [Compound 41, N-((4,4-difluoro-1-(methylsulfonyl)piperidin-3-yl)methyl)-N-methyl-6-(2-azaspiro[5.5]undecan-2-yl)-2-(trifluoromethyl)pyrimidin-4-amine], less than 30000 µM; with `CCN(CC1CN(S(C)(=O)=O)CCO1)c1cc(N2CCCC3(CCCCC3)C2)nc(C(F)(F)F)n1` (centres unmarked) [Compound 38, N-ethyl-N-((4-(methylsulfonyl)morpholin-2-yl)methyl)-6-(2-azaspiro[5.5]undecan-2-yl)-2-(trifluoromethyl)pyrimidin-4-amine], less than 30000 µM.
With `CN(CC1CCN(S(C)(=O)=O)C1)c1cc(N2CCCC3(CCCCC3)C2)nc(C(F)(F)F)n1` (centres unmarked) [Compound 9, N-methyl-N-((1-(methylsulfonyl)pyrrolidin-3-yl)methyl)-6-(2-azaspiro[5.5]undecan-2-yl)-2-(trifluoromethyl)pyrimidin-4-amine] the figure was less than 30000 µM; with `CN(CC1CN(S(C)(=O)=O)CCCO1)c1cc(N2CCOC3(CCCCC3)C2)nc(C(F)(F)F)n1` (centres unmarked) [Compound 31, N-methyl-N-((4-(methylsulfonyl)-1,4-oxazepan-2-yl)methyl)-6-(1-oxa-4-azaspiro[5.5]undecan-4-yl)-2-(trifluoromethyl)pyrimidin-4-amine], less than 30000 µM.
Regarding `CN(CC1CN(S(C)(=O)=O)CCS1)c1cc(N2CCOC3(CCCCC3)C2)nc(C(F)(F)F)n1` (centres unmarked) [Compound 26, N-methyl-N-((4-(methylsulfonyl)thiomorpholin-2-yl)methyl)-6-(1-oxa-4-azaspiro[5.5]undecan-4-yl)-2-(trifluoromethyl)pyrimidin-4-amine], the minimal effective concentration was less than 30000 µM.
